Data taken from ChEMBL document CHEMBL1144741, “Review of cytotoxic cephalostatins and ritterazines: isolation and synthesis” (2008).

What was measured:
Assay type in all cases: functional
CCRF-CEM = test: Antitumor activity against human CCRF-CEM cells
SF-295 = test: Antitumor activity against human SF295 cells
DMS-273 = test: Antitumor activity against human DMS273 cells
P388 = test: Antitumor activity against mouse P388 cells
HL-60 = test: Antitumor activity against human HL60 cells
RXF 393 = test: Antitumor activity against human RXF393 cells
HOP-62 = test: Antitumor activity against human HOP62 cells
[1] = Antitumor activity against human […] cells
U-251 = test: Antitumor activity against human U251 cells

Measured: GI50

C[C@@H]1[C@H]2CC=C3[C@@H]4CC[C@H]5Cc6nc7c(nc6C[C@]5(C)[C@H]4CC(=O)[C@@]32COC1(O)[C@H](O)CC(C)(C)O)C[C@@H]1CC[C@H]2C3=C[C@@H]4O[C@]5(O[C@](C)(CO)C[C@H]5O)[C@@H](C)[C@]4(O)[C@@]3(C)[C@H](O)C[C@@H]2[C@@]1(C)C7 (some centres undefined) [CEPHALOSTATIN 9]
< 0.1 nM: all assays above
